Here are results for 17 molecules from patent US12600728B2, “Interleukin-17 inhibitors” (priority 2020, dated 2026).

Data set [1] has as its target biotinylated human IL-17A / AF647-labeled human IL-17RA (Homo sapiens, UniProt Q16552). As to the kind of experiment: Human IL-17A×IL-17RA TR-FRET assay. Type of data set: binding. Put shortly:
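Compounds tested in duplicate at each concentration; neutral controls contain all components with DMSO in place of compound.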

In data set [2] the target is recombinant human IL-17AA (Homo sapiens, UniProt Q16552). As to the kind of experiment: IL-6 release from NHDF cells, IL-17AA plus TNF-α stimulation. Particulars: 24 hours, IL-6 by ELISA. Type of data set: cell-based. Summed up: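 IL-17-specific IL-6 release from NHDF cells adhered overnight; compounds pre-incubated 30 min at room temperature with human IL-17AA plus TNF-α, then 24 h on cells at 37° C. Final DMSO 0.1% or plasma 20%; IL-6 by ELISA (450 nm). TNF-α-only IL-6 subtracted before IC50 fit.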
Sequence of recombinant human IL-17AA (Q16552 24-155): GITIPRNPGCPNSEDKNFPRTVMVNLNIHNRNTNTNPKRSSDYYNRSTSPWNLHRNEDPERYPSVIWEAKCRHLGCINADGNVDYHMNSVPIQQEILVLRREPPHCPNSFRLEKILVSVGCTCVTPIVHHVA

[3] abbreviates: TR-FRET, biotinylated human IL-17A 5 nM, AF647-labeled human IL-17RA 30 nM, read-out: IL17AA FRET/ IL17Rawt IC50.
Setting [4] is: NHDF cells, IL-17AA 30 pM plus TNF-α 6 pM, read-out: IL17AA + TNF IC50 IL-6.
Where [5] appears, read: TR-FRET, 5 nM IL-17A, 30 nM IL-17RA, read-out: IL17AA FRET/ IL17Rawt IC50.
The mark [6] stands for this setting: NHDF cells, IL-17AA 30 pM + TNF-α 6 pM, read-out: IL17AA + TNF IC50 IL-6.
The mark [7] stands for this setting: IL17AA FRET/ IL17Rawt IC50, TR-FRET, 5 nM IL-17A, 30 nM IL-17RA.
Where [8] appears, read: IL17AA + TNF IC50 IL-6, NHDF cells, IL-17AA 30 pM + TNF-α 6 pM.
Setting [9] is: TR-FRET, 5 nM IL-17A, 30 nM IL-17RA, reference examples (pyridines), read-out: IL17AA FRET/ IL17RAwt IC50.
[10] abbreviates: NHDF cells, IL-17AA 30 pM + TNF-α 6 pM, reference examples (pyridines), read-out: IL 17AA + TNF IC50 IL-6.

pIC50: −log10 of the molar value. Read-outs that look alike come from different tables or passages of the source.

Sequence of biotinylated human IL-17A / AF647-labeled human IL-17RA (Q16552 24-155): as above

Molecule `CCc1nocc1C(=O)N[C@H](C(=O)Nc1ccc(-c2c(C(F)(F)F)cc[n+]([O-])c2C)cc1)C1CCCC1` [Example 5, (S)-3-(4-(2-cyclopentyl-2-(3-ethylisoxazole-4-carboxamido)acetamido)phenyl)-2-methyl-4-(trifluoromethyl)pyridine 1-oxide] yielded a melting point of 149 to 151 °C. In addition, in data set [1] (setting [3]), the pIC50 was 7.55. Besides, in data set [2] (setting [4]), the pIC50 is 8.05.
For `CCc1nocc1C(=O)N[C@H](C(=O)Nc1ccc(-c2c(Cl)cc[n+]([O-])c2C)cc1)[C@H]1CCCC(F)(F)C1` [Example 6, 4-chloro-3-(4-((S)-2-((S)-3,3-difluorocyclohexyl)-2-(3-ethylisoxazole-4-carboxamido)acetamido)phenyl)-2-methylpyridine 1-oxide], in that order: 247 to 250 °C, 7.32 and 8.30.
Turning to `Cc1cc[n+]([O-])c(C)c1-c1ccc(NC(=O)[C@@H](NC(=O)c2ccc3n2CCNC3)C2CCCCC2)cc1` [Example 205, (S)-3-(4-(2-cyclohexyl-2-(1,2,3,4-tetrahydropyrrolo[1,2-a]pyrazine-6-carboxamido)acetamido)phenyl)-2,4-dimethylpyridine 1-oxide], the figures for the pIC50 in data set [1] (setting [5]) and in data set [2] (setting [6]) were 6.54 and 7.24, respectively.
In the case of `Cc1c(-c2ccc(NC(=O)[C@@H](NC(=O)c3ccc4n3CCNC4)C3CCCCC3)cc2)c(Cl)cc[n+]1[O-]` [Example 206, (S)-4-chloro-3-(4-(2-cyclohexyl-2-(1,2,3,4-tetrahydropyrrolo[1,2-a]pyrazine-6-carboxamido)acetamido)phenyl)-2-methylpyridine 1-oxide], the pIC50 was 6.53 in data set [1] (setting [5]) and 7.20 in data set [2] (setting [6]).
With `Cc1cc[n+]([O-])c(C)c1-c1ccc(NC(=O)[C@@H](NC(=O)c2ccc3n2CCNC3)C2CCC(F)(F)CC2)cc1` [Example 207, (S)-3-(4-(2-(4,4-difluorocyclohexyl)-2-(1,2,3,4-tetrahydropyrrolo[1,2-a]pyrazine-6-carboxamido)acetamido)phenyl)-2,4-dimethylpyridine 1-oxide], the pIC50 is 6.52 in data set [1] (setting [5]) and 7.16 in data set [2] (setting [6]).
For the molecule `Cc1cc[n+]([O-])c(C)c1-c1ccc(NC(=O)[C@@H](NC(=O)c2ccc3n2CCN(C)C3)C(C)c2ccccc2Cl)cc1` (stereo partly drawn) [Example 213, 3-(4-((2S)-3-(2-chlorophenyl)-2-(2-methyl-1,2,3,4-tetrahydropyrrolo[1,2-a]pyrazine-6-carboxamido)butanamido)phenyl)-2,4-dimethylpyridine 1-oxide], the pIC50 in data set [1] (setting [5]) is 6.27; in data set [2] (setting [6]), 5.59.
As to `Cc1cc[n+]([O-])c(C)c1-c1ccc(NC(=O)[C@@H](NC(=O)c2ccnn2C)[C@H]2CCC[C@@H](F)CC2)cc1` [Example 215, 3-(4-((S)-2-((1S,4R)-4-fluorocycloheptyl)-2-(1-methyl-1H-pyrazole-5-carboxamido)acetamido)phenyl)-2,4-dimethylpyridine 1-oxide], the pIC50 in data set [1] (setting [5]) is 6.12; in data set [2] (setting [6]), 6.86.
For `Cc1cc[n+]([O-])c(C)c1-c1ccc(NC(=O)[C@H](Cc2ccccc2F)NC(=O)c2ccnn2C)cc1` [Example 217, (S)-3-(4-(3-(2-fluorophenyl)-2-(1-methyl-1H-pyrazole-5-carboxamido)propanamido)phenyl)-2,4-dimethylpyridine 1-oxide], in that order: 5.96 and 5.53.
The like results for `Cc1c(-c2ccc(NC(=O)C(NC(=O)c3ccnn3C)C3CC4CC4C3)cc2)c(Cl)cc[n+]1[O-]` (stereo not drawn) [Example 218, 3-(4-(2-(bicyclo[3.1.0]hexan-3-yl)-2-(1-methyl-1H-pyrazole-5-carboxamido)acetamido)phenyl)-4-chloro-2-methylpyridine 1-oxide] were, in that order, 7.17 and 7.71.
On to `Cc1cc[n+]([O-])c(C)c1-c1ccc(NC(=O)C(NC(=O)c2ccnn2C)C2C=C(F)CCC2)cc1` (stereo not drawn) [Example 219, 3-(4-(2-(3-fluorocyclohex-2-en-1-yl)-2-(1-methyl-1H-pyrazole-5-carboxamido)acetamido)phenyl)-2,4-dimethylpyridine 1-oxide], for which the pIC50 in data set [1] (setting [7]) was 5.64; in data set [2] (setting [8]), 6.85.
Consider `Cc1cc[n+]([O-])c(C)c1-c1ccc(NC(=O)C(NC(=O)c2conc2C)C(C)c2ccccc2Cl)cc1` (stereo not drawn) [Example 221, 3-(4-(3-(2-chlorophenyl)-2-(3-methylisoxazole-4-carboxamido)butanamido)phenyl)-2,4-dimethylpyridine 1-oxide], for which the pIC50 in data set [1] (setting [5]) is 7.14; in data set [2] (setting [6]), 6.58.
For `Cc1c(-c2ccc(NC(=O)[C@@H](NC(=O)c3ccnn3C)C3CCCCC3)cc2)c(C(C)C)cc[n+]1[O-]` [Example 224, (S)-3-(4-(2-cyclohexyl-2-(1-methyl-1H-pyrazole-5-carboxamido)acetamido)phenyl)-4-isopropyl-2-methylpyridine 1-oxide], in that order: 5.66 and 6.97.
`Cc1c(-c2ccc(NC(=O)C(NC(=O)c3ccnn3C)[C@H]3C[C@@H]4C[C@@H]4C3)cc2F)c(Cl)cc[n+]1[O-]` (stereo partly drawn) [Example 225, 3-(4-(2-((1R,3s,5S)-bicyclo[3.1.0]hexan-3-yl)-2-(1-methyl-1H-pyrazole-5-carboxamido)acetamido)-2-fluorophenyl)-4-chloro-2-methylpyridine 1-oxide]: the figures for the pIC50 in data set [1] (setting [7]) and in data set [2] (setting [8]) were 7.54 and 7.92, respectively.
Regarding `Cc1ccnc(C)c1-c1ccc(NC(=O)[C@@H](NC(=O)c2ccnn2C)[C@H]2CCCc3ccccc32)cc1` [compound 136, N—((S)-2-((4-(2,4-dimethylpyridin-3-yl)phenyl)amino)-2-oxo-1-((S)-1,2,3,4-tetrahydronaphthalen-1-yl)ethyl)-1-methyl-1H-pyrazole-5-carboxamide, reference compound], the pIC50 was 6.93 in data set [1] (setting [9]) and 7.30 in data set [2] (setting [10]).
Regarding `Cc1ccnc(C)c1-c1ccc(NC(=O)[C@@H](NC(=O)c2ccnn2C)[C@H]2CC[C@H](C)CC2)cc1` [compound 138, N-((S)-2-((4-(2,4-dimethylpyridin-3-yl)phenyl)amino)-1-((1r,4S)-4-methylcyclohexyl)-2-oxoethyl)-1-methyl-1H-pyrazole-5-carboxamide, reference compound], the figures for the pIC50 in data set [1] (setting [9]) and in data set [2] (setting [10]) were 6.26 and 7.26, respectively.
For `CCc1nocc1C(=O)N[C@H](C(=O)Nc1ccc(-c2c(C(F)(F)F)ccnc2C)cc1)C1CCCC1` [compound 139, (S)-N-(1-cyclopentyl-2-((4-(2-methyl-4-(trifluoromethyl)pyridin-3-yl)phenyl)amino)-2-oxoethyl)-3-ethylisoxazole-4-carboxamide, reference compound], in that order: 6.05 and 6.82.
In the case of `Cc1ccnc(C)c1-c1ccc(NC(=O)[C@@H](NC(=O)c2ccnn2C)[C@@H]2CC=C(F)CC2)cc1` [compound 144, N-((S)-2-((4-(2,4-dimethylpyridin-3-yl)phenyl)amino)-1-((S)-4-fluorocyclohex-3-en-1-yl)-2-oxoethyl)-1-methyl-1H-pyrazole-5-carboxamide, reference compound], the values for the pIC50 in data set [1] (setting [9]) and in data set [2] (setting [10]) were 5.38 and 6.15, respectively.
